The values that follow come from patent publication US11008323B2, “Substituted tricyclic 1,4-benzodiazepinone derivatives as allosteric modulators of group II metabotropic glutamate receptors” (Domain Therapeutics, priority 2015, dated 2021).

Each structure is given as a SMILES string. Counter-ions that a name gives are not always drawn.

T1 sequence (Q14832 23-879): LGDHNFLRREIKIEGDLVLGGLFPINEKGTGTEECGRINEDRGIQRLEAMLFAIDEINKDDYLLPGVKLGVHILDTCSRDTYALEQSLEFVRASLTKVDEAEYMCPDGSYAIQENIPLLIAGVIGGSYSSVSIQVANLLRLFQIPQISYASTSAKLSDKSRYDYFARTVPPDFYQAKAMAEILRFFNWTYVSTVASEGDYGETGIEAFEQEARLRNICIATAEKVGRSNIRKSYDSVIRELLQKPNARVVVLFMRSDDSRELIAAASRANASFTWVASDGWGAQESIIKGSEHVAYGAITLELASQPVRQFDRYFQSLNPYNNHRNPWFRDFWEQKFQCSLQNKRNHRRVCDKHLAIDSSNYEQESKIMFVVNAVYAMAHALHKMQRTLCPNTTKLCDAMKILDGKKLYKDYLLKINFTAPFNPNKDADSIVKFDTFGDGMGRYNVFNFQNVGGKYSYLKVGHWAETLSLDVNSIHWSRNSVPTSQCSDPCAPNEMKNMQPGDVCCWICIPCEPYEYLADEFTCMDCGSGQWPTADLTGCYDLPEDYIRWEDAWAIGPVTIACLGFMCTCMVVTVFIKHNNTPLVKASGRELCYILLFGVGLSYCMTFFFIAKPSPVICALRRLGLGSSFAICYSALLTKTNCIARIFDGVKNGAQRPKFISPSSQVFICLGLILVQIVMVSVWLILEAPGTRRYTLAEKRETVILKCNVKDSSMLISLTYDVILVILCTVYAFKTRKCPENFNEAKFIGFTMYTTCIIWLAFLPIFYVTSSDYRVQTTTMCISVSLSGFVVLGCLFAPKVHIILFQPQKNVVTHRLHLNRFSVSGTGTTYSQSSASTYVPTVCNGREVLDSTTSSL

The first series has as its target T1, human mGluR3 (hmGluR3) (Homo sapiens, UniProt Q14832).
T1 construct: expressed in transfected cells; host or cells: HEK-293 cells, transient co-transfection by electroporation
The series can be described thus: Human mGluR3 positive allosteric modulator evaluation using Ca++ functional assay. The settings on record: hmGluR3 transiently over-expressed in HEK-293 cells; stimulated by EC50 glutamate concentration; intracellular Ca2+ (Fluo4AM, FLIPR Tetra). Type of series: cell-based. In a few lines:
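Calcium flux (Fluo4, ex 485/em 525 nm) recorded first 10 min with compound alone, then 3 min after an EC50 glutamate challenge, giving agonist and PAM EC50 from 20-concentration sigmoidal fits. Receptor was transiently co-transfected in HEK-293 with chimeric G protein and glutamate transporters.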
In general, EC50 refers to the concentration at which the effect is half-maximal. On to `CN1C(=O)c2cc(-c3nnco3)cn2-c2cc(Br)ccc2C12CC2` [Example 189], for which the EC50 was > 1000 nM. Same read-out and setting: the same measure for `CN1C(=O)c2cc(-c3nnco3)cn2-c2cc(-c3ccc(Cl)nc3)ccc2C12CC2` [Example 191]: < 100 nM; for `Cc1ncccc1-c1ccc2c(c1)-n1cc(C(=O)C3CCCC3)cc1C(=O)N(C)C21CC1` [Example 194]: 100 to 1000 nM; for `CC(=O)c1cc2n(c1)-c1cc(-c3cccnc3C)ccc1C1(CC1)N(C)C2=O` [Example 195]: 100 to 1000 nM. `Cc1ncccc1-c1ccc2c(c1)-n1cc(CC3CCCC3)cc1C(=O)N(C)C21CC1` [Example 196] displayed an EC50 of 100 to 1000 nM.

Turning to `CCc1cc2n(c1)-c1cc(-c3cccnc3C)ccc1C1(CC1)N(C)C2=O` [Example 197], the EC50 is < 100 nM. Consider `Cc1cc2n(c1)-c1cc(-c3ccc(C)nc3)ccc1C1(CC1)N(C)C2=O` [Example 198], for which the concentration giving a half-maximal response (EC50) is < 100 nM. Still for that read-out and setting: the same measure for `CCc1ncccc1-c1ccc2c(c1)-n1cc(C)cc1C(=O)N(C)C21CC1` [Example 199]: < 100 nM; for `Cc1ncccc1-c1ccc2c(c1)-n1cc(C(F)F)cc1C(=O)N(C)C21CC1` [Example 201]: < 100 nM.

Regarding `CCc1ncccc1-c1ccc2c(c1)-n1cc(CO)cc1C(=O)N(C)C21CC1` [Example 203], the EC50 is 100 to 1000 nM. Same read-out and setting: for `COCc1cc2n(c1)-c1cc(-c3ccc(C)nc3)ccc1C1(CC1)N(C)C2=O` [Example 205] the value was < 100 nM; for `CCc1ncccc1-c1ccc2c(c1)-n1cc(COC)cc1C(=O)N(C)C21CC1` [Example 206], < 100 nM. Consider `Cc1ncccc1-c1ccc2c(c1)N1CCCC1C(=O)N(C)C21CC1` (centres unmarked) [Example 209, 5-Methyl-9-(2-methylpyridin-3-yl)-1,2,3,3a-tetrahydro-spiro[benzo[f]pyrrolo[1,2-a][1,4]diazepine-6,1′-cyclopropan]-4(5H)-one], for which the concentration giving a half-maximal response (EC50) was > 1000 nM. Regarding `CCC1c2ccc(Br)cc2-n2cccc2C(=O)N1C` (centres unmarked) [Example 214, 9-Bromo-5-methyl-6-ethyl-5,6-dihydro-benzo[f]pyrrolo[1,2-a][1,4]diazepin-4-one], the EC50 was > 1000 nM.

Regarding `Cc1ncccc1-c1ccc2c(c1)-n1cncc1C(=O)N(C)C2` [Example 215, 5-Methyl-9-(2-methylpyridin-3-yl)-5,6-dihydro-4H-benzo[f]imidazo[1,5-a][1,4]diazepin-4-one], the EC50 was > 1000 nM. As for `Cc1ncccc1-c1ccc2c(c1)-n1ccnc1C(=O)N(C)C2` [Example 216, 5-Methyl-9-(2-methylpyridin-3-yl)-5,6-dihydro-4H-benzo[f]imidazo[1,2-a][1,4]diazepin-4-one], the EC50 is > 1000 nM. Same read-out and setting: the same measure for `Cc1ncccc1-c1ccc2c(c1)-n1nccc1C(=O)N(C)C2` [Example 217, 5-Methyl-9-(2-methylpyridin-3-yl)-5,6-dihydro-4H-benzo[f]pyrazolo[1,5-a][1,4]diazepin-4-one]: > 1000 nM; for `Cc1ncccc1-c1ccc2c(c1)-n1cccc1C(=O)N(C)C2C` (centres unmarked) [Example 218, 5,6-Dimethyl-9-(2-methyl-pyridin-3-yl)-5,6-dihydro-benzo[f]pyrrolo[1,2-a][1,4]diazepin-4-one]: 100 to 1000 nM. For the compound `CC1c2ccc(-c3ccc(N(C)C)nc3)cc2-n2cccc2C(=O)N1C` (centres unmarked) [Example 219, 9-(6-Dimethylamino-pyridin-3-yl)-5,6-dimethyl-5,6-dihydro-benzo[f]pyrrolo[1,2-a][1,4]diazepin-4-one], the EC50 was < 100 nM. Regarding `CCC1c2ccc(-c3cccnc3C)cc2-n2cccc2C(=O)N1C` (centres unmarked) [Example 220, 6-Ethyl-5-methyl-9-(2-methyl-pyridin-3-yl)-5,6-dihydro-benzo[f]pyrrolo[1,2-a][1,4]diazepin-4-one], the EC50 fell in the range of 100 to 1000 nM. Regarding `CN1C(=O)c2cccn2-c2cc(Cl)ccc2C1(C)C` [Example 222, 9-Chloro-5,6,6-trimethyl-5,6-dihydro-benzo[f]pyrrolo[1,2-a][1,4]diazepin-4-one], the EC50 is > 1000 nM. `Cc1ncccc1-c1ccc2c(c1)-n1cccc1C(=O)N(C)C2(C)C` [Example 223, 5,6,6-Trimethyl-9-(2-methyl-pyridin-3-yl)-5,6-dihydro-benzo[f]pyrrolo[1,2-a][1,4]diazepin-4-one] displayed an EC50 of 100 to 1000 nM.

Tested on in the next series: not given
Assay: not given
Settings: not given
In general, melting point refers to the temperature, or range, at which the solid turns liquid. `CN1C(=O)c2cccn2-c2cc(-c3ccncc3)ccc2C12CC2` (as salt: hydrochloride) [Example 22, 5-Methyl-9-(pyridin-4-yl)-spiro[benzo[f]pyrrolo[1,2-a][1,4]diazepine-6,1′-cyclopropan]-4(5H)-one]: the melting point was > 250 °C. As to `CN1C(=O)c2cccn2-c2cc(-c3cccnc3)ccc2C12CC2` (as salt: hydrochloride) [Example 23, 5-Methyl-9-(pyridin-3-yl)-spiro[benzo[f]pyrrolo[1,2-a][1,4]diazepine-6,1′-cyclopropan]-4(5H)-one], the melting point is > 250 °C. In turn, `CCc1ncccc1-c1ccc2c(c1)-n1cccc1C(=O)N(C)C21CC1` (as salt: hydrochloride) [Example 24, 5-Methyl-9-(2-ethylpyridin-3-yl)-spiro[benzo[f]pyrrolo[1,2-a][1,4]diazepine-6,1′-cyclopropan]-4(5H)-one] gave a melting point of 136 to 143 °C.

On to `Cc1ccc(-c2ccc3c(c2)-n2cccc2C(=O)N(C)C32CC2)cn1` (as salt: hydrochloride) [Example 25, 5-Methyl-9-(6-methylpyridin-3-yl)-spiro[benzo[f]pyrrolo[1,2-a][1,4]diazepine-6,1′-cyclopropan]-4(5H)-one], for which the melting point lay in the range of 205 to 215 °C.

`Cc1cc(-c2ccc3c(c2)-n2cccc2C(=O)N(C)C32CC2)ccn1` (as salt: hydrochloride) [Example 26, 5-Methyl-9-(2-methylpyridin-4-yl)-spiro[benzo[f]pyrrolo[1,2-a][1,4]diazepine-6,1′-cyclopropan]-4(5H)-one] showed a melting point of 183 to 193 °C. As for `Cc1cnccc1-c1ccc2c(c1)-n1cccc1C(=O)N(C)C21CC1` (as salt: hydrochloride) [Example 38, 5-Methyl-9-(3-methylpyridin-4-yl)-spiro[benzo[f]pyrrolo[1,2-a][1,4]diazepine-6,1′-cyclopropan]-4(5H)-one], the melting point was > 250 °C. Still for that read-out and setting: the same measure for `CN1C(=O)c2cccn2-c2cc(-c3cnc(N)c(C(F)(F)F)c3)ccc2C12CC2` (as salt: hydrochloride) [Example 40, 5-Methyl-9-(6-amino-5-trifluoromethyl-pyridin-3-yl)-spiro[benzo[f]pyrrolo[1,2-a][1,4]diazepine-6,1′-cyclopropan]-4(5H)-one]: > 250 °C; for `CN1C(=O)c2cccn2-c2cc(-c3ccc4nccn4c3)ccc2C12CC2` (as salt: hydrochloride) [Example 41, 5-Methyl-9-(imidazo[1,2-a]pyridin-6-yl)-spiro[benzo[f]pyrrolo[1,2-a][1,4]diazepine-6,1′-cyclopropan]-4(5H)-one]: > 250 °C. Still for that read-out and setting: for `CN1C(=O)c2cccn2-c2cc(-c3ccc(N4CCOCC4)nc3)ccc2C12CC2` (as salt: hydrochloride) [Example 42, 5-Methyl-9-(6-morpholin-4-yl-pyridin-3-yl)-spiro[benzo[f]pyrrolo[1,2-a][1,4]diazepine-6,1′-cyclopropan]-4(5H)-one] the value was 191 to 199 °C; for `CN1C(=O)c2cccn2-c2cc(-c3ccc(N4CCCCC4)nc3)ccc2C12CC2` (as salt: hydrochloride) [Example 43, 5-Methyl-9-(3,4,5,6-tetrahydro-2H-[1,2′]bipyridinyl-5′-yl)-spiro[benzo[f]pyrrolo[1,2-a][1,4]diazepine-6,1′-cyclopropan]-4(5H)-one], 188 to 193 °C; for `CN1C(=O)c2cccn2-c2cc(C3=CCNCC3)ccc2C12CC2` (as salt: hydrochloride) [Example 46, 5-Methyl-9-(1,2,3,6-tetrahydro-pyridin-4-yl)-spiro[benzo[f]pyrrolo[1,2-a][1,4]diazepine-6,1′-cyclopropan]-4(5H)-one], 208 to 215 °C. On the same count and under the same terms, for `CN1C(=O)c2cccn2-c2cc(C3=CCN(c4ccncn4)CC3)ccc2C12CC2` (as salt: hydrochloride) [Example 47, 5-Methyl-9-(1-pyrimidin-4-yl-1,2,3,6-tetrahydro-pyridin-4-yl)-spiro[benzo[f]pyrrolo[1,2-a][1,4]diazepine-6,1′-cyclopropan]-4(5H)-one] the value was 210 to 220 °C; for `Cc1ccc(-c2ccc3c(c2)-n2cccc2C(=O)N(C)C32CC2)c(C)n1` (as salt: hydrochloride) [Example 56, 5-Methyl-9-(2,6-dimethylpyridin-3-yl)-spiro[benzo[f]pyrrolo[1,2-a][1,4]diazepine-6,1′-cyclopropan]-4(5H)-one], > 250 °C; for `Cc1nccnc1-c1ccc2c(c1)-n1cccc1C(=O)N(C)C21CC1` (as salt: hydrochloride) [Example 58, 5-Methyl-9-(3-methyl-pyrazin-2-yl)-5,6-spiro[benzo[f]pyrrolo[1,2-a][1,4]diazepine-6,1′-cyclopropan]-4(5H)-one], 123 to 129 °C. In the case of `Cc1ncncc1-c1ccc2c(c1)-n1cccc1C(=O)N(C)C21CC1` (as salt: hydrochloride) [Example 59, 5-Methyl-9-(4-methyl-pyrimidin-5-yl)-spiro[benzo[f]pyrrolo[1,2-a][1,4]diazepine-6,1′-cyclopropan]-4(5H)-one], the melting point was in the range of 140 to 147 °C. The same measure, in the same setting: for `CCCc1ncccc1-c1ccc2c(c1)-n1cccc1C(=O)N(C)C21CC1` (as salt: hydrochloride) [Example 61, 5-Methyl-9-(2-propylpyridin-3-yl)-spiro[benzo[f]pyrrolo[1,2-a][1,4]diazepine-6,1′-cyclopropan]-4(5H)-one] the value was 150 to 157 °C.
